# Reference: publication PMC6155340, “Isolation and Structure Identification of Novel Brominated Diketopiperazines from Nocardia ignorata—A Lichen-Associated Actinobacterium” (Molecules : A Journal of Synthetic Chemistry and Natural …, 2017)
# Non-standard residues stand in square brackets, D forms with d. Residues, ends and D or L forms follow the SMILES beside them. *: point of attachment. Tyr(3-Br) = N[C@@H](Cc1ccc(O)c(Br)c1)C(=O)O; Boc = CC(C)(C)OC(=O)*
# Legend:
# [1] = Cytotoxic activity, standard tetrazolium (MTT) assay on B16 cells; assay type: cell-based, murine; settings: mouse, B16 melanoma cells, 24 h incubation with compound, 1-200 µg/mL
# Protocol: (§1) Cytotoxic properties of pure compounds were determined with a standard tetrazolium assay. B16 (6000 cells/well) and HaCaT (10,000 cells/well) cells were seeded in RPMI 1640 medium with 5% fetal calf serum (FCS) and antibiotic at day 0 in well-plate. Incubation was performed at 37 °C in an atmosphere of 5% CO2. After 24 h of incubation, compounds were added at different concentrations (1, 10, 50, 100, and 200 µg/mL), and the plate was incubated 24 h more (37 °C, 5% CO2). Cell growth and viability were then measured at 540 nm, using a MTT (3-[4,5-dimethylthiazol-2-yl]-2,5-diphenyltetrazolium bromide) assay. Each experiment was repeated at least three times.
# [2] = Cytotoxic activity, standard tetrazolium (MTT) assay on HaCaT cells; assay type: cell-based; settings: human, HaCaT keratinocyte cells, 24 h incubation with compound, 1-200 µg/mL
# Protocol: as §1
SMILES,IC50 at 24 h [1] [µg/mL],IC50 at 24 h [2] [µg/mL]
"COC(=O)[C@H]1CCCN1C(=O)[C@H](Cc1ccc(O)c(Br)c1)NC(=O)OC(C)(C)C [Compound 13a, Methyl ((S)-3-(3-bromo-4-hydroxyphenyl)-2-((tert-butoxycarbonyl)amino)propanoyl)-D-prolinate] (Boc-[Tyr(3-Br)]-[dP]-OMe)",> 200,> 200
"O=C1N[C@@H](Cc2ccc(O)cc2)C(=O)N2CCC[C@@H]12 [Compound 2, cyclo (L-Pro-L-Tyr)]",> 200,> 200
"O=C1N[C@@H](Cc2ccc(O)c(Br)c2)C(=O)N2CCC[C@H]12 [Compound 6, cyclo (D-Pro-L-Br-Tyr)]",> 200,> 200
"CC(C)C[C@@H]1NC(=O)[C@@H]2CCCN2C1=O [Compound 5, cyclo (L-Pro-L-Leu)]",> 200,> 200
"O=Cc1c[nH]c2ccccc12 [Compound 8, indole-carboxaldehyde]",72 ± 6,79 ± 6
"COC(=O)[C@@H]1CCCN1C(=O)[C@H](Cc1ccc(O)c(Br)c1)NC(=O)OC(C)(C)C [Compound 13b, Methyl ((S)-3-(3-bromo-4-hydroxyphenyl)-2-((tert-butoxycarbonyl)amino)propanoyl)-L-prolinate] (Boc-[Tyr(3-Br)]-Pro-OMe)",18 ± 5,7 ± 2.5
"CC(C)[C@@H]1NC(=O)[C@@H]2CCCN2C1=O [Compound 4, cyclo (L-Pro-L-Val)]",> 200,> 200
"O=C1N[C@@H](Cc2ccc(O)cc2)C(=O)N2CCC[C@H]12 [Compound 3, cyclo (D-Pro-L-Tyr)]",> 200,> 200
"C[S+]([O-])CC[C@@H]1NC(=O)[C@@H]2CCCN2C1=O (stereo partly drawn) [Compound 1, cyclo (L-Pro-L-OMet)]",> 200,> 200
"O=C1N[C@@H](Cc2ccc(O)c(Br)c2)C(=O)N2CCC[C@@H]12 [Compound 7, cyclo (L-Pro-L-Br-Tyr)]",> 200,> 200
